From ChEMBL document CHEMBL3779795, “Design and synthesis of thiourea derivatives with sulfur-containing heterocyclic scaffolds as potential tyrosinase inhibitors” (Bioorg Med Chem, 2016) come the findings set out here.

For orientation: IC50 means the midpoint of a concentration-inhibition curve. Low values mean higher potency, high ones lower potency. One may read the Ki as the dissociation constant of the complex between target and ligand, obtained from inhibition or displacement. Higher therefore signals weaker binding.

In the first assay the target is T1, Tyrosinase (Agaricus bisporus, UniProt O42713).
T1 sequence (O42713 whole entry): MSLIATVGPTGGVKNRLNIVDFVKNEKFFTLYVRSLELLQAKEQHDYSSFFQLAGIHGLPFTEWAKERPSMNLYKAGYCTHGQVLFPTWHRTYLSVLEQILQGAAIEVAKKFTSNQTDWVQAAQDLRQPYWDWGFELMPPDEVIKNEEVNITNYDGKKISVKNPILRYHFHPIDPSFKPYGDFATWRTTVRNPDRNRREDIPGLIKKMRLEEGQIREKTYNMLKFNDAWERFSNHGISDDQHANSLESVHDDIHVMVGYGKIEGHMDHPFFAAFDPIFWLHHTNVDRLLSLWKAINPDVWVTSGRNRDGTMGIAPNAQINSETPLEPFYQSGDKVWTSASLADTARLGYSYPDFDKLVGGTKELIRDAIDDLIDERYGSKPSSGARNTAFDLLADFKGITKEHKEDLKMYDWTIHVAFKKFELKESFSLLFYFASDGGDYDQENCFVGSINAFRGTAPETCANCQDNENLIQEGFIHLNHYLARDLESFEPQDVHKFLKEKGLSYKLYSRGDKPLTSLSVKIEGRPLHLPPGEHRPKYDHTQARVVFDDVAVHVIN
Put plainly: Inhibition of diphenolase activity of mushroom tyrosinase preincubated for 10 mins followed by addition of L-DOPA measured for 5 mins by spectrophotometry.
Compound `O=C(O)CSc1nnc(NC(=S)Nc2ccc(Cl)cc2)s1` yielded an IC50 of 26.3 µM.
Consider `O=C(O)CSc1nnc(NC(=S)Nc2ccccc2)s1`, for which the IC50 amounted to 27.7 µM.
Same read-out and setting: the figure for `O=C(O)CSc1nnc(NC(=S)Nc2ccc(F)c(F)c2)s1` is 20.5 µM.
In turn, `O=C(O)CSc1nnc(NC(=S)Nc2ccc(F)cc2)s1` came in with a 50% inhibitory concentration (IC50) of 20.9 µM.
Same read-out and setting: the figure for `O=C(O)CSc1nnc(NC(=S)Nc2ccc(F)c(Cl)c2)s1` is 33.9 µM.
On the same count and under the same terms, the figure for `O=C(O)CSc1nnc(NC(=S)Nc2ccc(F)cc2F)s1` is 20.1 µM; for `COc1ccccc1NC(=S)Nc1nnc(SCC(=O)O)s1` it is 27.1 µM.
`O=C(O)CSc1nnc(NC(=S)Nc2cccc(F)c2)s1` had an IC50 of 31.3 µM.
Still for that read-out and setting: to `O=C(O)CSc1nnc(NC(=S)Nc2cccc(C(F)(F)F)c2)s1` belongs 6.13 µM; to `O=C(O)CSc1nnc(NC(=S)Nc2cccc(Cl)c2)s1`, 59.7 µM; to `Cc1ccc(NC(=S)Nc2nnc(SCC(=O)O)s2)cc1`, 54.4 µM.

The next assay concerns the target T1, Tyrosinase. Put plainly: Noncompetitive inhibition of diphenolase activity of mushroom tyrosinase preincubated for 10 mins followed by addition of L-DOPA measured for 5 mins by Lineweaver-Burk plot analysis.
Consider `O=C(O)CSc1nnc(NC(=S)Nc2cccc(C(F)(F)F)c2)s1`, for which the inhibition constant Ki turned out to be 8.13 µM.
